The experiment relates to CD2F1 mice, L1210 leukemia ip, survival T/C. Kind of experiment: NCI In Vivo Anticancer Drug Screen. Data for tumor model L1210 Leukemia (intraperitoneal) in CD2F1 (CDF1) mice. The conditions noted are these: higher = longer survival. In outline: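 Each value reflects a quotient of treated over vehicle control outcomes in mice with a transplanted tumor.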
Where [1] appears, read: endpoint: mean survival time, dose: 100.0 mg/kg/injection, schedule: Q01DX009 (ip), vehicle: saline with Tween-80.
Where [2] appears, read: endpoint: mean survival time, dose: 200.0 mg/kg/injection, schedule: Q01DX009 (ip), vehicle: saline with Tween-80.
Setting [3] is: endpoint: mean survival time, dose: 400.0 mg/kg/injection, schedule: Q01DX009 (ip), vehicle: saline with Tween-80.
The mark [4] stands for this setting: endpoint: mean survival time, dose: 100.0 mg/kg/injection, schedule: Q01DX001 (ip), vehicle: saline with Tween-80.
Setting [5] is: endpoint: mean survival time, dose: 200.0 mg/kg/injection, schedule: Q01DX001 (ip), vehicle: saline with Tween-80.
[6] abbreviates: endpoint: mean survival time, dose: 400.0 mg/kg/injection, schedule: Q01DX001 (ip), vehicle: saline with Tween-80.
Setting [7] is: endpoint: mean survival time, dose: 100.0 mg/kg/injection, schedule: Q04DX003 (ip), vehicle: saline with Tween-80.
[8] abbreviates: endpoint: mean survival time, dose: 200.0 mg/kg/injection, schedule: Q04DX003 (ip), vehicle: saline with Tween-80.
Setting [9] is: endpoint: mean survival time, dose: 400.0 mg/kg/injection, schedule: Q04DX003 (ip), vehicle: saline with Tween-80.
The mark [10] stands for this setting: endpoint: mean survival time, dose: 25.0 mg/kg/injection, schedule: Q01DX009 (ip), vehicle: saline.
The mark [11] stands for this setting: endpoint: mean survival time, dose: 50.0 mg/kg/injection, schedule: Q01DX009 (ip), vehicle: saline.

“And” between values parts separate entries of the source, which are not always exact repeats. Equal values may be shown once. Toxic doses and inconclusive results are not listed.

On to `COC(=O)C(CCSC)NC(=O)C(C)NC(=O)OCc1ccccc1` (stereo unspecified), for which the T/C was 98 % of control under setting [1], 95 % of control under setting [2] and 95 % of control under setting [3].
As to `CCOC(=O)Nc1cc2ncc(C(=O)N(C)c3ccccc3)nc2c(N)n1`, the T/C under setting [4] is 98 % of control, the T/C under setting [5] was 88 % of control and the T/C under setting [6] was 98 % of control.
For the molecule `Cc1oc2ncnc(N)c2c1C`, the T/C is, setting by setting: under setting [7], 96 % of control; under setting [8], 100 % of control; under setting [9], 95 % of control.
As for `CCCCc1ccc(N/C(N)=N/c2nc(C)cc(=O)[nH]2)cc1`, the T/C runs as follows: under setting [7], 98 % of control; under setting [8], 98 % of control; under setting [9], 92 % of control.
`CN(C)N=Nc1ccc(S(N)(=O)=O)cc1`: the T/C was 106 % of control (endpoint: mean survival time, dose: 18.75 mg/kg/injection, schedule: Q01DX009 (ip), vehicle: Klucel (hydroxypropylcellulose) (HPC)); 124 % of control (endpoint: mean survival time, dose: 37.5 mg/kg/injection, schedule: Q01DX009 (ip), vehicle: Klucel (hydroxypropylcellulose) (HPC)); 118 % of control (endpoint: mean survival time, dose: 150.0 mg/kg/injection, schedule: Q01DX009 (ip), vehicle: Klucel (hydroxypropylcellulose) (HPC)).
Regarding `Cc1ccc2c(c1)CC(C)(C)O2`, the T/C (endpoint: mean survival time, dose: 50.0 mg/kg/injection, schedule: Q01DX001 (ip), vehicle: Klucel (hydroxypropylcellulose) (HPC)) was 102 % of control; the T/C (endpoint: mean survival time, dose: 100.0 mg/kg/injection, schedule: Q01DX001 (ip), vehicle: Klucel (hydroxypropylcellulose) (HPC)) was 93 % of control; the T/C (endpoint: mean survival time, dose: 200.0 mg/kg/injection, schedule: Q01DX001 (ip), vehicle: Klucel (hydroxypropylcellulose) (HPC)) was 102 % of control.
For `O=[N+]([O-])c1cc[n+]([O-])cc1`, the T/C (endpoint: mean survival time, dose: 75.0 mg/kg/injection, schedule: Q01DX001 (ip), vehicle: saline) is 106 % of control.
Regarding `CCCCCCCC(=O)NC1CCC(C(C)(C)C)CC1` (stereo unspecified), the T/C is 93 % of control (endpoint: mean survival time, dose: 100.0 mg/kg/injection, schedule: Q04DX003 (ip), vehicle: other); 94 % of control (endpoint: mean survival time, dose: 200.0 mg/kg/injection, schedule: Q04DX003 (ip), vehicle: other); 89 % of control (endpoint: mean survival time, dose: 400.0 mg/kg/injection, schedule: Q04DX003 (ip), vehicle: other).
For the molecule `O=C1CC(c2ccccc2)=NN1c1ccccc1`, the T/C is, setting by setting: (endpoint: mean survival time, dose: 100.0 mg/kg/injection, schedule: Q04DX003 (ip), vehicle: Klucel (hydroxypropylcellulose) (HPC)) 98 % of control; (endpoint: mean survival time, dose: 200.0 mg/kg/injection, schedule: Q04DX003 (ip), vehicle: Klucel (hydroxypropylcellulose) (HPC)) 95 % of control; (endpoint: mean survival time, dose: 400.0 mg/kg/injection, schedule: Q04DX003 (ip), vehicle: Klucel (hydroxypropylcellulose) (HPC)) 101 % of control.
Regarding `Nc1nc(N)c2c(n1)NCN(CCc1ccc(Cl)cc1)C2`, the T/C is 100 % of control (endpoint: mean survival time, dose: 0.75 mg/kg/injection, schedule: Q01DX009 (ip), vehicle: distilled water + Tween-80); 102 % of control (endpoint: mean survival time, dose: 1.5 mg/kg/injection, schedule: Q01DX009 (ip), vehicle: distilled water + Tween-80); 102 % of control (endpoint: mean survival time, dose: 3.0 mg/kg/injection, schedule: Q01DX009 (ip), vehicle: distilled water + Tween-80); 100 % of control (endpoint: mean survival time, dose: 6.0 mg/kg/injection, schedule: Q01DX009 (ip), vehicle: distilled water + Tween-80); 100 % of control (endpoint: mean survival time, dose: 12.0 mg/kg/injection, schedule: Q01DX009 (ip), vehicle: distilled water + Tween-80); 98 % of control (endpoint: mean survival time, dose: 24.0 mg/kg/injection, schedule: Q01DX009 (ip), vehicle: distilled water + Tween-80).
With `C1CNC(SCCOCCOCCSC2=NCCN2)=N1`, the T/C was 97 % of control (endpoint: mean survival time, dose: 12.5 mg/kg/injection, schedule: Q01DX009 (ip), vehicle: saline); 97 % of control under setting [10]; 100 % of control under setting [11].
For the molecule `O=[N+]([O-])c1ccc(/C(CBr)=N/N2CCCCCC2)cc1`, the T/C is 91 % of control (endpoint: mean survival time, dose: 100.0 mg/kg/injection, schedule: Q01DX001 (ip), vehicle: saline); 92 % of control (endpoint: mean survival time, dose: 200.0 mg/kg/injection, schedule: Q01DX001 (ip), vehicle: saline); 95 % of control (endpoint: mean survival time, dose: 400.0 mg/kg/injection, schedule: Q01DX001 (ip), vehicle: saline).
`CCOC(=O)C1=C(NC(=O)Nc2cccc(C(F)(F)F)c2)SC2CCCCC12` (stereo unspecified): the T/C is 94 % of control (endpoint: mean survival time, dose: 50.0 mg/kg/injection, schedule: Q01DX009 (ip), vehicle: saline with Tween-80); 91 % of control under setting [1]; 87 % of control under setting [2].
For the molecule `COc1ccc(CCNC(=O)c2ccc(OC)c(OC)c2)cc1OC`, the T/C runs as follows: (endpoint: mean survival time, dose: 12.5 mg/kg/injection, schedule: Q01DX009 (ip), vehicle: other) 104 % of control; (endpoint: mean survival time, dose: 25.0 mg/kg/injection, schedule: Q01DX009 (ip), vehicle: other) 90 % of control; (endpoint: mean survival time, dose: 50.0 mg/kg/injection, schedule: Q01DX009 (ip), vehicle: other) 103 % of control; (endpoint: mean survival time, dose: 100.0 mg/kg/injection, schedule: Q01DX009 (ip), vehicle: other) 98 % of control; (endpoint: mean survival time, dose: 200.0 mg/kg/injection, schedule: Q01DX009 (ip), vehicle: other) 97 % of control.
In the case of `COc1cc(OC)cc(C(c2nccc3cc(OC)c(OC)cc23)C(O)(C(F)(F)F)C(F)(F)F)c1` (stereo unspecified), the T/C was 97 % of control under setting [4]; 90 % of control under setting [1]; 93 % of control under setting [5]; 93 % of control under setting [2]; 86 % of control under setting [6]; 89 % of control under setting [3].
Take `OC1=C2CCCCCC2=[N+]2CCCCC2C1` (stereo unspecified): the T/C reads like this: under setting [7], 95 % of control; under setting [8], 95 % of control.
`COC1OC2COc3ccccc3OC2C2N=C(N)SC12` (stereo unspecified): the T/C was 100 % of control under setting [4] and 97 % of control under setting [5].
On to `CC[C@@]1(O)C(=O)OCc2c1cc1n(c2=O)Cc2cc3cc(O)ccc3nc2-1`, for which the T/C (endpoint: mean survival time, dose: 2.0 mg/kg/injection, schedule: Q04DX003 (ip), vehicle: other) is 155 % of control; the T/C (endpoint: mean survival time, dose: 4.0 mg/kg/injection, schedule: Q04DX003 (ip), vehicle: other) was 174 % of control; the T/C (endpoint: mean survival time, dose: 16.0 mg/kg/injection, schedule: Q04DX003 (ip), vehicle: other) was 107 % of control; the T/C (endpoint: median survival time, dose: 1.25 mg/kg/injection, schedule: Q04DX002 (ip), vehicle: saline) is 184 % of control; the T/C (endpoint: median survival time, dose: 1.5 mg/kg/injection, schedule: Q04DX002 (ip), vehicle: saline) was 166 % of control; the T/C (endpoint: median survival time, dose: 2.5 mg/kg/injection, schedule: Q04DX002 (ip), vehicle: saline) was 162 % of control and 253 % of control. For the same molecule, the T/C is 150 % of control (endpoint: median survival time, dose: 3.0 mg/kg/injection, schedule: Q04DX002 (ip), vehicle: suspension in saline); 232 % of control and 301 % of control (endpoint: median survival time, dose: 5.0 mg/kg/injection, schedule: Q04DX002 (ip), vehicle: saline); 153 % of control (endpoint: median survival time, dose: 6.0 mg/kg/injection, schedule: Q04DX002 (ip), vehicle: suspension in saline); 192 % of control and 209 % of control (endpoint: median survival time, dose: 10.0 mg/kg/injection, schedule: Q04DX002 (ip), vehicle: saline); 228 % of control (endpoint: median survival time, dose: 12.0 mg/kg/injection, schedule: Q04DX002 (ip), vehicle: suspension in saline); 184 % of control and 348 % of control (endpoint: median survival time, dose: 20.0 mg/kg/injection, schedule: Q04DX002 (ip), vehicle: saline). The T/C reads like this: (endpoint: median survival time, dose: 40.0 mg/kg/injection, schedule: Q04DX002 (ip), vehicle: saline) 102 % of control; (endpoint: median survival time, dose: 48.0 mg/kg/injection, schedule: Q04DX002 (ip), vehicle: suspension in saline) 87 % of control.
Regarding `CC[N+]1(C2CCC3CCC2C3O)CCOCC1` (stereo unspecified), the T/C was 91 % of control under setting [10]; 95 % of control (endpoint: mean survival time, dose: 25.0 mg/kg/injection, schedule: Q04DX003 (ip), vehicle: saline); 94 % of control under setting [11]; 97 % of control (endpoint: mean survival time, dose: 50.0 mg/kg/injection, schedule: Q04DX003 (ip), vehicle: saline); 100 % of control under setting [4]; 92 % of control (endpoint: mean survival time, dose: 100.0 mg/kg/injection, schedule: Q01DX009 (ip), vehicle: saline). For the same molecule, the T/C (endpoint: mean survival time, dose: 100.0 mg/kg/injection, schedule: Q04DX003 (ip), vehicle: saline) is 100 % of control.
Consider `COC(=O)C1CCCCC1C(=O)OC` (stereo unspecified), for which the T/C (endpoint: mean survival time, dose: 100.0 mg/kg/injection, schedule: Q04DX002 (ip), vehicle: saline with Tween-80) is 97 % of control; the T/C under setting [7] is 104 % of control; the T/C (endpoint: mean survival time, dose: 200.0 mg/kg/injection, schedule: Q04DX002 (ip), vehicle: saline with Tween-80) was 97 % of control; the T/C under setting [8] is 98 % of control; the T/C (endpoint: mean survival time, dose: 400.0 mg/kg/injection, schedule: Q04DX002 (ip), vehicle: saline with Tween-80) is 101 % of control.

The values are drawn from PubChem BioAssay AID256 (DTP/NCI, 2004).
